In data set [1] the test system is H1975 xenograft tumor. Nature of the data set: In vivo tumorigenesis assay, intratumoral DNAzyme. Further details: species or system Balb/c Nude mice. The method, then:
(§1) 8-week-old Balb/c Nude mice were subcutaneously inoculated with 2×10^6 H1975 cells. After 7 days, mice were randomly divided into two groups consisting of ten mice in each group (DzControl or DzT790M-1). 500 pmoles of DzControl or DzT790M-1 mixed with lipofectamine 2000 were injected intratumorally at frequency of twice per week until completion of the experiments. The sizes of tumor were measured every 3-4 days. All the animal studies were performed according to the protocols approved by the Laboratory Animal Center, Academia Sinica. After the mice were sacrificed, the tumor tissues were excised and fixed by 10% formalin and embedded in paraffin. Xenograft tumor slides were stained for hematoxylin and eosin and analyzed with microscopy.
as §1, with “All the animal studies were performed according to the protocols approved by the Laboratory Animal Center, Academia Sinica.” left out, “microscopy. […] To assess the effects of DzT790M-1 on EGFR expression and downstream signaling, tumors taken from the Balb/c Nude mice were processed for western blotting.” for “microscopy.”

Data set [2] concerns wild-type EGFR mRNA. Nature of the data set: Quantitative real-time PCR of EGFR mRNA knockdown. The class given is cell-based, human. Conditions: 100 nM, 48 h. The method, then: A549, CL1-5, H1975, or CL97 was seeded onto 6-well at 3×10^5 cells/well and cultured overnight. Then, cells were separately treated with 100 nM DzControl or DzT790M-1 with lipofectamine 2000 (Invitrogen). After 48 h, total mRNA were extracted from DNAzyme-treated cells by Mestrisol following manufacturer's protocol. cDNA were synthesized by using RT III kit with random hexamers as primers (Invitrogen). The PCR primers were synthesized by Genomics BioSci & Tech (Taipei, Taiwan). The sequences of PCR primers are listed as follows: […]
The parameters for PCR were: 95° C. for 10 min, then 25 cycles of PCR at 95° C. for 30 s, 60° C. for 30 s, and 72° C. for 60 s. 3% agarose gels were used for electrophoresis of PCR products. The intensity of bands were quantified by Image J. Quantitative RT-PCR was performed on 40 ng total mRNA with the LightCycler 480 system (Roche). The PCR mix contained 5 μl of 2× Probe Master mix, 100 nM of UPL probe (Roche Diagnostics, Penzberg, Germany), 200 nM of forward primer and reverse primer, 0.1 ul RNAseout (Invitrogen), and 0.025 ul RTIII enzyme (Invitrogen) in a total volume of 10 μl. PCR parameters were as follows: 50° C. for 40 min, then 45 cycles of PCR at 95° C. for 10 s, 60° C. for 10 s, and 72° C. for 2 s. Data were analyzed by LC480 software (Roche Diagnostics, Penzberg, Germany). The relative amount of EGFR mRNA was normalized to ACTB mRNA. The sequences of PCR primers are as follows: […]
To examine the allele selectivity of DzT790M-1, EGFR mRNA knockdown efficiency was detected in two cell lines harboring wild-type EGFR (A549, CL1-5) and two cell lines containing EGFR T790M mutation (H1975, CL97). A549, CL1-5, H1975, or CL97 was seeded onto 6-well at 3×10^5 cells/well and cultured overnight. […]
Then, A549 and PC9 cells were separately treated with 50, 100, or 150 nM control DNAzyme or DzEGFR—ΔE746-A750 with Lipofectamine 2000 for 48 h. […] Quantitative RT-PCR was performed on 40 ng total mRNA with the LightCycler 480 system (Roche). […] Data were analyzed by LC480 software (Roche Diagnostics). […]

[3] abbreviates: 500 pmoles intratumorally twice per week.

Strand notation (5' to 3'): a small letter for the sugar, then the base; units joined by * are phosphorothioate-linked, units joined directly phosphodiester-linked; [ ] holds rarer units or linkages, { } end groups; capitals alone tell only the bases. d = 2'-deoxy (DNA)

Turning to “DzT790M-1: 10-23 DNAzyme against EGFR T790M mRNA, arms 10/4, phosphorothioate ends: AGCTGCATGAGGCTAGCTACAACGAGAGC (DNA dA*dGdCdTdGdCdAdTdGdAdGdGdCdTdAdGdCdTdAdCdAdAdCdGdAdGdAdG*dC; further chemistry not fully specified)”, in data set [1] (setting [3]), the “total EGFR, pEGFR, pSTAT3, pAKT, pERK expression in xenograft tumor tissue (western blotting)” value is on record as “significantly suppressed”; the “tumor tissue histology (hematoxylin and eosin)” value is reported as “Severe necrosis”. The tumor growth entry in data set [1] (500 pmoles with lipofectamine 2000 intratumorally twice per week, vs DzControl) is reported as “significantly suppressed”. For the same substance, in data set [2] (A549 cells), the “wild-type EGFR mRNA knockdown” value was determined as 1.1%. Also, the “wild-type EGFR mRNA knockdown” value in data set [2] (CL1-5 cells) is 19.2%.
